In test [1] the target is Epidermal Growth Factor Receptor (EGFR) (Homo sapiens (Human), UniProt P00533). Description: EGFR kinase assay (TR-FRET). It counts as biochemical. An excerpt:
EGFR inhibitory activity of compounds of the present invention was quantified employing the TR-FRET based EGFR assay as described in the following paragraphs.
Epidermal Growth Factor Receptor (EGFR) affinity purified from human carcinoma A431 cells (Sigma-Aldrich, #E3641) was used as kinase. As substrate for the kinase reaction the biotinylated peptide biotin-Ahx-[…] (SEQ ID NO 5) (C-terminus in amid form) was used which can be purchased e.g. form the company Biosyntan GmbH (Berlin-Buch, Germany).
For the assay 50 nL of a 100 fold concentrated solution of the test compound in DMSO was pipetted into a black low volume 384 well microtiter plate (Greiner Bio-One, Frickenhausen, Germany), 2 μL of a solution of EGFR in aqueous assay buffer [50 mM Hepes/HCl pH 7.0, 1 mM MgCl2, 5 mM MnCl2, 0.5 mM activated sodium ortho-vanadate, 0.005% (v/v) Tween-20]were added and the mixture was incubated for 15 min at 22° C. to allow pre-binding of the test compounds to the enzyme before the start of the kinase reaction. […] The concentration of EGFR was adjusted depending of the activity of the enzyme lot and was chosen appropriate to have the assay in the linear range, typical concentration were about 3 U/ml. The reaction was stopped by the addition of 5 μl of a solution of HTRF detection reagents (0.1 μM streptavidine-XL665 [Cis Biointernational] and 1 nM PT66-Tb-Cryptate, an terbium-cryptate labelled anti-phospho-tyrosine antibody from Cis Biointernational [instead of the PT66-Tb-cryptate PT66-Eu-Chelate from Perkin Elmer can also be used]) in an aqueous EDTA-solution (80 mM EDTA, 0.2% (w/v) bovine serum albumin in 50 mM HEPES pH 7.5).
The resulting mixture was incubated 1 h at 22° C. to allow the binding of the biotinylated phosphorylated peptide to the streptavidine-XL665 and the PT66-Eu-Chelate. Subsequently the amount of phosphorylated substrate was evaluated by measurement of the resonance energy transfer from the PT66-Tb-Cryptate to the streptavidine-XL665. Therefore, the fluorescence emissions at 620 nm and 665 nm after excitation at 337 nm were measured in a HTRF reader, e.g. a Pherastar (BMG Labtechnologies, Offenburg, Germany) or a Viewlux (Perkin-Elmer). The ratio of the emissions at 665 nm and at […] was taken as the measure for the amount of phosphorylated substrate.

The target of test [2] is K-Ras^G12C : hSOS1 interaction (Homo sapiens, UniProt Q07889). Description: Biochemical assay 1: K-Ras^G12C interaction assay with hSOS1 (HTRF). It counts as binding.
Test [3] deals with human SOS1 (loading of human K-Ras^G12C-GDP with fluorescent GTP-analog) (Homo sapiens, UniProt Q07889). The experiment in a line: Biochemical assay 3: K-Ras^G12C activation assay by hSOS1 (HTRF). For orientation: In TR-FRET formats the signal depends on donor and acceptor labels being close together.
Test [4] addresses human SOS1 (nucleotide exchange of K-Ras^G12C) (Homo sapiens, UniProt Q07889). Description: Biochemical assay 2: K-Ras^G12C activation assay by hSOS1 at high GTP concentration (HTRF).
Setting [5] is: values given in μM, read-out: EGFR kinase inhibition IC50.
Where [6] appears, read: read-out: Assay 1 (KRAS-SOS Interaction) activity expressed as IC50.
[7] abbreviates: no GTP, read-out: Assay 3 (KRAS-Activation by SOS no GTP) activity expressed as IC50.
Setting [8] is: in μM, read-out: EGFR-assay IC50.
The mark [9] stands for this setting: E-notation values, unit inferred, read-out: Assay 1 (KRAS-SOS interaction) IC50.
[10] abbreviates: E-notation values, unit inferred, 50 μM GTP, read-out: Assay 2 (KRAS-Activation, high GTP) IC50.
Where [11] appears, read: E-notation values, unit inferred, read-out: Assay 3 (KRAS-Activation) IC50.
Where [12] appears, read: E-notation values, unit inferred, read-out: EGFR-assay IC50.

Read-outs that look alike come from different tables or passages of the source.

Chain of Epidermal Growth Factor Receptor (EGFR) (P00533 25-1210): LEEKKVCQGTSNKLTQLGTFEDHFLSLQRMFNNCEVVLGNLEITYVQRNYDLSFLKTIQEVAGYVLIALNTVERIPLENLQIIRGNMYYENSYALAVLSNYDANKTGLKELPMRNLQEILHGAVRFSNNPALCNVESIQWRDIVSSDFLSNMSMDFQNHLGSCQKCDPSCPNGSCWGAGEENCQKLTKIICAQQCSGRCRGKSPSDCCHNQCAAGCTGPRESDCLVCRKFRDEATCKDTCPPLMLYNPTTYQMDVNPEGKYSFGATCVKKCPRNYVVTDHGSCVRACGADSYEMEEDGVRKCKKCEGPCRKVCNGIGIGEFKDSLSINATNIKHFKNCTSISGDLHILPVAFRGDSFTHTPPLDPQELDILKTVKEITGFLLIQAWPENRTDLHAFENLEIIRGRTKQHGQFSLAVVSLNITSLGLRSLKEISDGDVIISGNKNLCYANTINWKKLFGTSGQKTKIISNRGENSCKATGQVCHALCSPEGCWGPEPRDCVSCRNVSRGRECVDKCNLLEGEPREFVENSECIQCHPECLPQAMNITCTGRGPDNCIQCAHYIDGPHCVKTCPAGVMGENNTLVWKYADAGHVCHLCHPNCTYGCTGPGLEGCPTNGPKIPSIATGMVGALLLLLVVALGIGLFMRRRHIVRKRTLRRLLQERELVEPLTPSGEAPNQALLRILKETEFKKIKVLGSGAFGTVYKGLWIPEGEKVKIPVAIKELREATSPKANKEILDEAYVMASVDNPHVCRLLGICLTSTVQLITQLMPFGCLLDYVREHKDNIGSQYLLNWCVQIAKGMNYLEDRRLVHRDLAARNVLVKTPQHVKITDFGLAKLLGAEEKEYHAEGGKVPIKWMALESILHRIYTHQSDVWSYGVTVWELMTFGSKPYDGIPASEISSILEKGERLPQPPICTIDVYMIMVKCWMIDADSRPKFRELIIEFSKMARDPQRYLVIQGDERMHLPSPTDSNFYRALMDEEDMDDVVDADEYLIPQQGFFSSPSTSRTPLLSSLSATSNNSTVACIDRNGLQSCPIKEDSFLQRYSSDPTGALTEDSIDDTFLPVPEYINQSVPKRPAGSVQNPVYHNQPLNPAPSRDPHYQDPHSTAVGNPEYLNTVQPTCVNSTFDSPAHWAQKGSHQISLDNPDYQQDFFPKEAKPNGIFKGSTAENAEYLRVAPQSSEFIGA

On to `CNCc1ccccc1-c1csc(C(C)Nc2nc(C)nc3cc(OC)c(OC)cc23)c1` (single isomer, unassigned; enantiomer 1) [Example 326, 6,7-dimethoxy-2-methyl-N-[1-(4-{2-[(methylamino)methyl]phenyl}thiophen-2-yl)ethyl]quinazolin-4-amine, Enantiomer 1], for which the IC50 (in general, the concentration at which inhibition is half-maximal) in test [1] (setting [5]) is above 20 µM.
With `CNCc1ccccc1-c1csc(C(C)Nc2nc(C)nc3cc(OC)c(OC)cc23)c1` (single isomer, unassigned; enantiomer 2) [Example 327, 6,7-dimethoxy-2-methyl-N-[1-(4-{2-[(methylamino)methyl]phenyl}thiophen-2-yl)ethyl]quinazolin-4-amine, Enantiomer 2], the IC50 in test [1] (setting [5]) is above 20 µM.
On to `COc1cc2nc(C)nc(N[C@H](C)c3cccc4ccccc34)c2cc1OC` [Example 1, 6,7-dimethoxy-2-methyl-N-[(1R)-1-(naphthalen-1-yl)ethyl]quinazolin-4-amine], for which the IC50 in test [1] (setting [5]) is above 20 µM.
Consider `COc1cc2nc(C)nc(NC(C)c3ccc(Br)o3)c2cc1OC` (centres unmarked) [Example 208, N-[1-(5-bromofuran-2-yl)ethyl]-6,7-dimethoxy-2-methylquinazolin-4-amine], for which the IC50 is 5.97 µM in test [2] (setting [6]) and above 20 µM in test [1] (setting [5]). Besides, in test [3] (read-out: Assay 3 (KRAS-Activation by SOS no GTP) activity expressed as % inhibition at 20 μM, no GTP, at 20 μM), the inhibition (as a rule, the relative decrease from the control value, in per cent) at 20 µM turned out to be 47%.
As to `COc1cc2nc(C)nc(NC(C)c3ccc(Br)s3)c2cc1OC` (centres unmarked) [Example 209, N-[1-(5-bromothiophen-2-yl)ethyl]-6,7-dimethoxy-2-methylquinazolin-4-amine], the half-inhibitory concentration (IC50) in test [2] (setting [6]) was 1.08 µM; in test [3] (setting [7]), 4.95 µM; in test [1] (setting [5]), above 20 µM.
For the molecule `CNCc1ccccc1-c1csc(C(C)Nc2nc(C)nc3cc(OC)c(OC)cc23)c1` (centres unmarked) [Example 271, 6,7-dimethoxy-2-methyl-N-[1-(4-{2-[(methylamino)methyl]phenyl}thiophen-2-yl)ethyl]quinazolin-4-amine], in test [1] (setting [5]), the IC50 was above 20 µM.
Take `COc1cc2nc(C)nc(N[C@H](C)c3cccc(-c4c[nH]cn4)c3)c2cc1OC` [Example 342, N-{(1R)-1-[3-(1H-imidazol-4-yl)phenyl]ethyl}-6,7-dimethoxy-2-methylquinazolin-4-amine]: the IC50 in test [4] (high GTP, read-out: Assay 2 (KRAS-Activation by SOS high GTP) activity expressed as IC50) was 0.993 µM; in test [3] (setting [7]) it was 1.13 µM; in test [1] (setting [5]) it was above 20 µM.
As for `COc1cc2nc(C)nc(NC(C)c3ccc(-c4ccccc4-c4nnn[nH]4)s3)c2cc1OC` (centres unmarked) [Example 368, 6,7-dimethoxy-2-methyl-N-[1-{5-[2-(1H-tetrazol-5-yl)phenyl]thiophen-2-yl}ethyl]-quinazolin-4-amine], the IC50 in test [1] (setting [8]) is above 20 µM.
Take `Cc1nc(N[C@H](C)c2cccc(Cl)c2)c2cc(C(=O)O)ccc2n1` [Example 372, 4-{[(1R)-1-(3-chlorophenyl)ethyl]amino}-2-methylquinazoline-6-carboxylic acid]: the IC50 in test [1] (setting [8]) is above 20 µM.
Turning to `COc1cc2nc(C)nc(NC(C)c3ccc(-c4ccccc4C(O)CCc4ccccc4)s3)c2cc1OC` (centres unmarked) [Example 375, 1-[2-(5-{1-[(6,7-dimethoxy-2-methylquinazolin-4-yl)amino]ethyl}thiophen-2-yl)phenyl]-3-phenylpropan-1-ol], the IC50 in test [1] (setting [8]) was above 20 µM.
Turning to `COc1cc2nc(C)nc(NC(C)c3ccc(-c4ccc(C(F)(F)F)cc4C)s3)c2cc1OC` (centres unmarked) [Example 386, 6,7-di methoxy-2-methyl-N-(1-{5-[2-methyl-4-(trifluoromethyl)phenyl]-2-thienyl}ethyl)quinazolin-4-amine], the IC50 is 8.77 µM in test [2] (setting [9]), 3.66 µM in test [4] (setting [10]) and 10.1 µM in test [3] (setting [11]).
For `Cc1nc(NC(C)c2ccc(-c3ccccc3CN(C)C)s2)c2cc(N3CCCC3)ccc2n1` (centres unmarked) [Example 415, N-[1-(5-{2-[(dimethylamino)methyl]phenyl}thiophen-2-yl)ethyl]-2-methyl-6-(pyrrolidin-1-yl)quinazolin-4-amine], the IC50 was 0.115 µM in test [2] (setting [9]), 0.0885 µM in test [4] (setting [10]) and 0.0942 µM in test [3] (setting [11]).
In the case of `COc1cc2nc(C)nc(NC(C)c3csc(C)n3)c2cc1OC` (centres unmarked) [Example 444], the IC50 in test [4] (setting [10]), in test [3] (setting [11]) and in test [1] (setting [12]) was above 20 µM throughout.
For `COc1cc2nc(C)nc(NC(C)c3nc(C)cs3)c2cc1OC` (centres unmarked) [Example 445, 6,7-dimethoxy-2-methyl-N-[1-(4-methyl-1,3-thiazol-2-yl)ethyl]quinazolin-4-amine], the IC50 in test [4] (setting [10]), in test [3] (setting [11]) and in test [1] (setting [12]) was above 20 µM in each case.
Consider `COc1cc2nc(C)nc(NC(C)c3ccc(-c4cc(C(=O)O)n(C)n4)s3)c2cc1OC` (centres unmarked) [Example 446, 3-(5-{1-[(6,7-dimethoxy-2-methylquinazolin-4-yl)amino]ethyl}thiophen-2-yl)-1-methyl-1H-pyrazole-5-carboxylic acid], for which the IC50 in test [4] (setting [10]), in test [3] (setting [11]) and in test [1] (setting [12]) was above 20 µM each time.
Take `COc1cc2nc(C)nc(NC(C)c3ccc(-c4ccc(CNC(=O)OC(C)(C)C)s4)s3)c2cc1OC` (centres unmarked) [Example 447, tert-butyl [(5′-{1-[(6,7-dimethoxy-2-methylquinazolin-4-yl)amino]ethyl}-2,2′-bithiophen-5-yl)methyl]carbamate]: the concentration for half-maximal inhibition (IC50) in test [4] (setting [10]), in test [3] (setting [11]) and in test [1] (setting [12]) was above 20 µM in each case.
For `COc1cc2nc(C)nc(N[C@H](C)c3cccc(-c4cn[nH]c4)c3)c2cc1OCCS(C)(=O)=O` [Example 448, 7-methoxy-2-methyl-6-[2-(methylsulfonyl)ethoxy]-N-{(1R)-1-[3-(1H-pyrazol-4-yl)phenyl]ethyl}quinazolin-4-amine], the IC50 in test [4] (setting [10]), in test [3] (setting [11]) and in test [1] (setting [12]) was above 20 µM throughout.
In the case of `COc1cc2nc(C)nc(NC(C)c3ccc(-c4ccc(Cl)cc4CNC(=O)OC(C)(C)C)s3)c2cc1OC` (centres unmarked) [Example 449, tert-butyl [5-chloro-2-(5-{1-[(6,7-dimethoxy-2-methylquinazolin-4-yl)amino]ethyl}thiophen-2-yl)benzyl]carbamate], the IC50 in test [4] (setting [10]), in test [3] (setting [11]) and in test [1] (setting [12]) was above 20 µM throughout.
For the molecule `COc1cc2nc(C)nc(NC(C)c3ccc(-c4cccc(Cl)c4CNC(=O)OC(C)(C)C)s3)c2cc1OC` (centres unmarked) [Example 450, tert-butyl [2-chloro-6-(5-{1-[(6,7-dimethoxy-2-methylquinazolin-4-yl)amino]ethyl}-thiophen-2-yl)benzyl]carbamate], the IC50 in test [4] (setting [10]), in test [3] (setting [11]) and in test [1] (setting [12]) was above 20 µM in each case.
As to `Cc1nc(N[C@H](C)c2cccc(Cl)c2)c2ccc(Br)cc2n1` [Example 451, 7-bromo-N-[(1R)-1-(3-chlorophenyl)ethyl]-2-methylquinazolin-4-amine], the IC50 in test [4] (setting [10]), in test [3] (setting [11]) and in test [1] (setting [12]) was above 20 µM each time.
As for `Cc1nc(NC(C)c2ccc(Br)s2)c2cc([N+](=O)[O-])ccc2n1` (centres unmarked) [Example 452, N-[1-(5-bromothiophen-2-yl)ethyl]-2-methyl-6-nitroquinazolin-4-amine], the IC50 in test [4] (setting [10]), in test [3] (setting [11]) and in test [1] (setting [12]) was above 20 µM each time.
Turning to `COC(=O)c1ccc2c(N[C@H](C)c3cccc(Cl)c3)nc(C)nc2c1` [Example 453, methyl 4-{[(1R)-1-(3-chlorophenyl)ethyl]amino}-2-methylquinazoline-7-carboxylate], the IC50 in test [4] (setting [10]), in test [3] (setting [11]) and in test [1] (setting [12]) was above 20 µM each time.
With `COc1cc2ncnc(N[C@H](C)c3cccc4ccccc34)c2cc1OC` [Reference compound, 6,7-dimethoxy-N-[(1R)-1-(1-naphthyl)ethyl]quinazolin-4-amine, reference compound], the IC50 in test [1] (unit inferred, read-out: EGFR kinase inhibition IC50) is 0.553 µM.

The record behind these values is patent US20240083857A1, “2-Methyl-Quinazolines” (Bayer Pharma Aktiengesellschaft, priority 2017, published 2024).
